Experimental data taken from ChEMBL document CHEMBL4312025, “Synthesis, antiproliferative activity and DNA/RNA-binding properties of mono- and bis-(1,2,3-triazolyl)-appended benzimidazo[1,2-a]quinoline derivatives” (Eur J Med Chem, 2020).
Blank lines part the entries; values can stand above or below the compound they belong to. The source made the active and inactive calls. The rule behind the calls is not given here.

Assays:
[1] = Growth inhibition of human HaCaT cells incubated for 72 hrs by MTT assay; format: cell-based
[2] = tested on: HCT-116; test: Growth inhibition of human HCT116 cells incubated for 72 hrs by MTT assay; format: functional; details: HCT-116, 72 h
[3] = tested on: MCF7; test: Growth inhibition of human MCF7 cells incubated for 72 hrs by MTT assay; format: functional; details: MCF7, 72 h
[4] = tested on: NCI-H460; test: Growth inhibition of human H460 cells incubated for 72 hrs by MTT assay; format: functional; details: NCI-H460, 72 h
[5] = tested on: Calf thymus DNA; test: Binding affinity to calf thymus dsDNA assessed as ratio for fluorescence intensity of compound to fluorescence intensity for compound-polynucleotide complex in sodium cacodylate buffer at pH 7 by fluorescence spectroscopy based Scatchard method; format: nucleic-acid assay; details: Bos taurus
[6] = tested on: Calf thymus DNA; test: Binding affinity to calf thymus dsDNA assessed as stabilization of mixed DNA base pairs in sodium cacodylate buffer at pH 7 at compound:polynucleotide concentration ratio of 0.2 by thermal denaturation assay; format: nucleic-acid assay; details: Bos taurus
[7] = tested on: Calf thymus DNA; test: Binding affinity to calf thymus dsDNA assessed as intercalating activity by measuring weak negative ICD band between 300 and 330 nm in sodium cacodylate buffer at pH 7 at compound:polynucleotide concentration ratio of 0.1 to 0.3 by CD spectroscopy; format: nucleic-acid assay; details: Bos taurus
[8] = tested on: Calf thymus DNA; test: Binding affinity to calf thymus dsDNA assessed as intercalating activity by measuring decrease in CD spectra of polynucleotides in sodium cacodylate buffer at pH 7 at compound:polynucleotide concentration ratio of 0.1 to 0.3 by CD spectroscopy; format: nucleic-acid assay; details: Bos taurus
[9] = tested on: Poly(dA-dU)oligonucleotide; test: Binding affinity to polyA-polyU dsRNA (unknown origin) assessed as ratio for fluorescence intensity of compound to fluorescence intensity for compound-polynucleotide complex in sodium cacodylate buffer at pH 7 by fluorescence spectroscopy based Scatchard method; format: nucleic-acid assay
[10] = Solubility of the compound in 0.05 M sodium cacodylate buffer with <0.01% DMSO upto 1X10'-5 mol/dm3 by UV/Visible spectra analysis; format: physicochemical
[11] = tested on: Poly(dA-dU)oligonucleotide; test: Binding affinity to polyA-polyU dsRNA (unknown origin) assessed as intercalating activity by measuring decrease in CD spectra of polynucleotides in sodium cacodylate buffer at pH 7 at compound:polynucleotide concentration ratio of 0.1 to 0.4 by CD spectroscopy; format: nucleic-acid assay
[12] = tested on: Calf thymus DNA; test: Binding affinity to calf thymus ds-DNA assessed as decrease in emission intensity of the compound in sodium cacodylate buffer at pH 7 at 1X10'-6 mol/dm3 by fluorescence spectroscopy; format: nucleic-acid assay; details: Bos taurus
[13] = Drug uptake in nucleus of human H460 cells at 10 uM incubated for 15 mins by fluorescence microscopy; format: ADME, cell-based; details: nci-h460, 0.25 h
[14] = tested on: Calf thymus DNA; test: Binding affinity to calf thymus dsDNA assessed as change in melting temperature in sodium cacodylate buffer at pH 7 at compound:polynucleotide concentration ratio of 0.2 by thermal denaturation assay; format: nucleic-acid assay; details: Bos taurus
[15] = Drug uptake in cytoplasm of human H460 cells assessed as perinuclear reticular staining at 10 uM incubated for 15 mins by fluorescence microscopy; format: ADME, cell-based; details: nci-h460, 0.25 h
[16] = tested on: Poly(dA-dU)oligonucleotide; test: Binding affinity to polyA-polyU dsRNA (unknown origin) assessed as binding constant in sodium cacodylate buffer at pH 7 by fluorescence spectroscopy; format: nucleic-acid assay
[17] = tested on: Poly(dA-dU)oligonucleotide; test: Binding affinity to polyA-polyU dsRNA (unknown origin) assessed as decrease in emission intensity of the compound in sodium cacodylate buffer at pH 7 at 1X10'-6 mol/dm3 by fluorescence spectroscopy; format: nucleic-acid assay
[18] = tested on: Poly(dA-dU)oligonucleotide; test: Binding affinity to polyA-polyU dsRNA (unknown origin) assessed as ratio for bound compound to polynucleotide in sodium cacodylate buffer at pH 7 by fluorescence spectroscopy based Scatchard method; format: nucleic-acid assay
[19] = tested on: Poly(dA-dU)oligonucleotide; test: Binding affinity to polyA-polyU dsRNA (unknown origin) assessed as stabilization of polynucleotide in sodium cacodylate buffer at pH 7 at compound:polynucleotide concentration ratio of 0.1 to 0.2 by thermal denaturation assay; format: nucleic-acid assay
[20] = tested on: Calf thymus DNA; test: Binding affinity to calf thymus dsDNA assessed as binding constant in sodium cacodylate buffer at pH 7 by fluorescence spectroscopy; format: nucleic-acid assay; details: Bos taurus
[21] = tested on: Calf thymus DNA; test: Binding affinity to calf thymus dsDNA assessed as ratio for bound compound to polynucleotide in sodium cacodylate buffer at pH 7 by fluorescence spectroscopy based Scatchard analysis; format: nucleic-acid assay; details: Bos taurus
[22] = tested on: Poly(dA-dU)oligonucleotide; test: Binding affinity to polyA-polyU dsRNA (unknown origin) assessed as biphasic thermal denaturation transitions in sodium cacodylate buffer at pH 7 at compound:polynucleotide concentration ratio of 0.2 by thermal denaturation assay; format: nucleic-acid assay
[23] = tested on: Poly(dA-dU)oligonucleotide; test: Binding affinity to polyA-polyU dsRNA (unknown origin) assessed as biphasic thermal denaturation transitions in sodium cacodylate buffer at pH 7 at compound:polynucleotide concentration ratio of 0.1 by thermal denaturation assay; format: nucleic-acid assay
[24] = Drug uptake in cytoplasm of human H460 cells assessed as perinuclear reticular staining at 1 uM incubated for 15 mins by fluorescence microscopy; format: ADME, cell-based; details: nci-h460, 0.25 h
[25] = Drug uptake in nucleus of human H460 cells at 1 uM incubated for 15 mins by fluorescence microscopy; format: ADME, cell-based; details: nci-h460, 0.25 h
[26] = tested on: Poly(dA-dU)oligonucleotide; test: Binding affinity to polyA-polyU dsRNA (unknown origin) assessed as change in melting temperature in sodium cacodylate buffer at pH 7 at compound:polynucleotide concentration ratio of 0.2 by thermal denaturation assay; format: nucleic-acid assay
[27] = tested on: HCT-116; test: Cell cycle arrest in human HCT116 cells at 0.5 to 1 uM incubated for 24 and 48 hrs by propidium iodide staining based flow cytometry; format: functional
[28] = tested on: HCT-116; test: Cytotoxicity against human HCT116 cells assessed as induction of massive cell death at 5 uM incubated for 24 to 48 hrs; format: functional, cell-based
[29] = Selectivity index, ratio of GI50 for human HaCaT cells to GI50 for human HCT116 cells incubated for 72 hrs by MTT assay; format: toxicity; details: HaCaT cells and HCT116 cells, read-out: RatioGI50

Structure (SMILES): N#Cc1c(-n2cc(-c3ccc(Br)cc3)nn2)c2ccccc2n2c1nc1ccccc12
GI50 [2]: 25 µM
GI50 [3]: 31 µM
GI50 [4]: 59.5 µM

Structure (SMILES): CCCCCc1ccc(-c2cn(-c3c(C#N)c4nc5ccccc5n4c4cc(F)ccc34)nn2)cc1
GI50 [2]: 7 µM
GI50 [3]: 24 µM
GI50 [4]: 32 µM

Structure (SMILES): CCCCCCCCCCc1cn(-c2c(C#N)c3nc4ccccc4n3c3ccccc23)nn1
GI50 [2]: 35 µM
GI50 [3]: 28.5 µM
GI50 [4]: 62 µM

Structure (SMILES): N#Cc1c(-n2cc(C3CC3)nn2)c2ccccc2n2c1nc1ccccc12
GI50 [2]: 10 µM
GI50 [3]: 3 µM
GI50 [4]: 52 µM

Structure (SMILES): COc1cc([C@@H]2c3cc4c(cc3[C@@H](O[C@@H]3O[C@@H]5CO[C@@H](C)O[C@H]5[C@H](O)[C@H]3O)[C@H]3COC(=O)[C@H]23)OCO4)cc(OC)c1O [ETOPOSIDE]
GI50 [2]: 5 µM
GI50 [3]: 1 µM
GI50 [4]: 0.1 µM

Structure (SMILES): N#Cc1c(-n2cc(CNS(=O)(=O)c3ccc(F)cc3)nn2)c2ccccc2n2c1nc1ccccc12
GI50 at 72 h [1]: 2.9 µM
GI50 [2]: 3.5 µM
GI50 [3]: 4.2 µM
GI50 [4]: 13 µM

Structure (SMILES): CCCCCc1ccc(-c2cn(-c3c(C#N)c4nc5ccccc5n4c4ccccc34)nn2)cc1
GI50 [2]: 34 µM
GI50 [3]: 35 µM
GI50 [4]: 32 µM

Structure (SMILES): N#Cc1c(-n2cc(CCO)nn2)c2ccc(-n3cc(CCO)nn3)cc2n2c1nc1ccccc12
GI50 [2]: 59 µM
GI50 [3]: 35 µM
GI50 [4]: ≥ 100 µM

Structure (SMILES): CCCCCc1ccc(-c2cn(-c3ccc4c(-n5cc(-c6ccc(CCCCC)cc6)nn5)c(C#N)c5nc6ccccc6n5c4c3)nn2)cc1
GI50 [2]: 8 µM
GI50 [3]: 18 µM
GI50 [4]: 16 µM

Structure (SMILES): CCCCCCCCCCc1cn(-c2ccc3c(-n4cc(CCCCCCCCCC)nn4)c(C#N)c4nc5ccccc5n4c3c2)nn1
GI50 [2]: 16 µM
GI50 [3]: 15 µM
GI50 [4]: 17 µM

The next lines start with results.

GI50 [2]: 2 µM
GI50 [3]: 4.5 µM
GI50 [4]: 2 µM
Structure (SMILES): N#Cc1c(-n2cc(-c3cc(C(F)(F)F)cc(C(F)(F)F)c3)nn2)c2ccc(F)cc2n2c1nc1ccccc12
GI50 at 72 h [1]: 2.1 µM

Ratio [5]: 0.3
Activity [6]: Active
Activity [7]: Active
Activity [8]: Active
GI50 [2]: 1 µM
Ratio [9]: 0.2
solubility [10]: Soluble
Activity [11]: Active
Activity [12]: Active
Drug uptake [13]: Not Active
ΔTm [14]: 1.2 °C
Drug uptake [15]: Active
GI50 [3]: 1.5 µM
log Ks [16]: 6
Activity [17]: Active
Ratio [18]: 0.3
Activity [19]: Active
log Ks [20]: 6.1
Ratio [21]: 0.4
GI50 [4]: 2 µM
ΔTm [22]: 0.4 to 25.3 °C
ΔTm [23]: 0.2 to 17 °C
Structure (SMILES): N#Cc1c(-n2cc(CCCCl)nn2)c2ccccc2n2c1nc1ccccc12
GI50 at 72 h [1]: 1 µM

GI50 [2]: 2 µM
GI50 [3]: 3.9 µM
GI50 [4]: 3.4 µM
Structure (SMILES): N#Cc1c(-n2cc(CNS(=O)(=O)c3ccc(F)cc3)nn2)c2ccc(F)cc2n2c1nc1ccccc12
GI50 at 72 h [1]: 2.9 µM

GI50 [2]: 3.5 µM
GI50 [3]: 4.2 µM
GI50 [4]: 13 µM
Structure (SMILES): N#Cc1c(-n2cc(CCO)nn2)c2ccccc2n2c1nc1ccccc12
GI50 at 72 h [1]: 3.3 µM

Ratio [5]: 0.5
Activity [6]: Active
Activity [7]: Active
Activity [8]: Active
Drug uptake [24]: Active
GI50 [2]: 0.6 µM
Drug uptake [25]: Not Active
solubility [10]: Soluble
ΔTm [26]: 0 °C
Activity [11]: Active
Activity [12]: Active
ΔTm [14]: 1.3 °C
GI50 [3]: 2 µM
Activity [17]: Active
log Ks [20]: 5
Ratio [21]: 0.08
GI50 [4]: 1 µM
Structure (SMILES): N#Cc1c(-n2cc(CCO)nn2)c2ccc(F)cc2n2c1nc1ccccc12
GI50 at 72 h [1]: 0.73 µM
Activity [27]: Active
Activity [28]: Active

Ratio [5]: 0.5
Activity [6]: inactive
Activity [7]: Active
Activity [8]: Active
Drug uptake [24]: Active
GI50 [2]: 0.5 µM
Ratio [9]: 0.4
Drug uptake [25]: Not Active
solubility [10]: Soluble
Activity [11]: Active
Activity [12]: Active
ΔTm [14]: 0.5 °C
GI50 [3]: 2 µM
log Ks [16]: 5.9
Activity [17]: Active
Ratio [18]: 0.1
Activity [19]: Active
log Ks [20]: 5.2
Ratio [21]: 0.1
GI50 [4]: 0.7 µM
ΔTm [22]: 0.7 to 20.7 °C
ΔTm [23]: 0.7 to 16.6 °C
Structure (SMILES): N#Cc1c(-n2cc(CCCCl)nn2)c2ccc(F)cc2n2c1nc1ccccc12
GI50 at 72 h [1]: 3.5 µM
Activity [27]: Active
Activity [28]: Active
selectivity ratio at 72 h [29]: > 7

Ratio [5]: 0.8
Activity [6]: Active
Activity [7]: Active
Activity [8]: Active
Drug uptake [24]: Active
GI50 [2]: 2.5 µM
Drug uptake [25]: Not Active
solubility [10]: Soluble
ΔTm [26]: 0 °C
Activity [11]: Active
Activity [12]: Active
ΔTm [14]: 1.5 °C
GI50 [3]: 6.9 µM
Activity [17]: Active
log Ks [20]: 5.4
Ratio [21]: 0.1
GI50 [4]: 3 µM
Structure (SMILES): N#Cc1c(-n2cc(CCCCl)nn2)c2ccc(-n3cc(CCCCl)nn3)cc2n2c1nc1ccccc12
GI50 at 72 h [1]: 3.2 µM

GI50 [2]: 3 µM
GI50 [3]: 5 µM
GI50 [4]: 7 µM
Structure (SMILES): CCCCCCCCCCc1cn(-c2c(C#N)c3nc4ccccc4n3c3cc(F)ccc23)nn1
GI50 at 72 h [1]: 3.5 µM

GI50 [2]: 1 µM
GI50 [3]: 4 µM
GI50 [4]: 1 µM
Structure (SMILES): N#Cc1c(-n2cc(-c3cc(C(F)(F)F)cc(C(F)(F)F)c3)nn2)c2ccccc2n2c1nc1ccccc12
GI50 at 72 h [1]: 2.2 µM

GI50 [2]: 1.6 µM
GI50 [3]: 3 µM
GI50 [4]: 3 µM
Structure (SMILES): N#Cc1c(-n2cc(C3CC3)nn2)c2ccc(-n3cc(C4CC4)nn3)cc2n2c1nc1ccccc12
GI50 at 72 h [1]: 3.24 µM
